# Measured values: US20020019991A1, “COMPOSITIONS CONTAINING AN ALPHA 1,2-FUCOSE LINKAGE AND USES THEREOF” (ABBOTT LABORATORIES, priority 1998, published 2002)
# Legend:
# [1] = system: enterohemorrhagic E. coli (EHEC); assay: Competitive assay: inhibition of EHEC attachment to transfected CHO (α1-2 FT) cells, colony counting; assay type: cell-based, Escherichia coli
# Experimental: (§1) To determine whether 2′Fucosyllactose is an important chemical structure of the cell receptor for V. cholerae and enterohemorrhagic E. coli (EHEC), a competitive assay was set up. A volume of 400 ul of a suspension of transfected CHO (α1-2 FT) cells at a concentration of 4×10^5 cells/mL was placed in each well of an 8-well microchamber slide (Lab-Tek, Nunc, Inc. Naperville, Ill.). Cells were incubated overnight at 37° C. in a 5% CO2 atmosphere. A bacterial suspension of 1.5×10^8 of V. cholerae was added with either 0.5, 1, or 2 mg/mL of 2′fucosyllactose and incubated at 37° C. Wells were washed 6 times with PBS. Cells were detached with […] of triton x 100 and serial dilutions in TBS or McConkey agar plates were done for colony counting.
# [2] = system: V. cholerae; assay: Competitive assay: inhibition of V. cholerae attachment to transfected CHO (α1-2 FT) cells, colony counting; assay type: cell-based, Vibrio cholerae
# Experimental: as §1
# [3] = system: Enteropathogenic E. coli (EPEC); assay type: binding, Escherichia coli
# [4] = system: Vibrio cholerae 01 Ogawa strain 2995; assay type: binding
# [5] = system: Enterohemorrhagic Escherichia coli (EHEC) 0157:H7 strain 933; assay type: binding
Molecule,"inhibition of binding, EHEC compared with V. cholerae ([1]; EHEC versus V. cholerae, transfected CHO cells)","dose dependence of inhibition of bacterial cell attachment ([1]; EHEC, 0.5, 1, or 2 mg/mL)","inhibition of bacterial cell attachment ([1]; EHEC, transfected CHO (α1-2 FT) cells, concentration as low as 0.5 mg/ml)","dose dependence of inhibition of bacterial cell attachment ([2]; 0.5, 1, or 2 mg/mL)","inhibition of bacterial cell attachment ([2]; transfected CHO (α1-2 FT) cells, concentration as low as 0.5 mg/ml)",binding of EPEC to immobilized blood group antigen neoglycoprotein [3],binding of V. cholerae to immobilized blood group antigen neoglycoprotein [4],binding of EHEC to immobilized blood group antigen neoglycoprotein [5]
"C[C@@H]1O[C@@H](O[C@H]2[C@H](O[C@H]3[C@H](O)[C@@H](O)C(O)O[C@@H]3CO)O[C@H](CO)[C@H](O)[C@@H]2O)[C@@H](O)[C@H](O)[C@@H]1O (some centres unmarked) [2′fucosyllactose, 2′-fucosyllactose (Fucα1-2Galβ1-4Glc)]",greater inhibition,dose-dependent inhibition,significant inhibition,dose-dependent inhibition,significant inhibition,–,–,–
Lewis^x,–,–,–,–,–,stronger binding,stronger binding,stronger binding
